Reference: US11203601B2, “Tricyclic compounds as glycogen synthase kinase 3 (GSK3) inhibitors and uses thereof” (The Broad Institute, Inc., priority 2017, dated 2021)
≈ marks a conversion by molar mass, not a printed value. Read-outs that look alike come from different tables or passages of the source.

Key:
[1] = Liver microsomal stability, mouse; format: in vitro ADME, mouse (CD-1)
Method: (§1) Stability of compound in liver microsomes was tested in duplicate by incubating compound at 1 μM for 60 minutes at 37° C. Compound level at 60 minutes was compared to level at 0 minutes, and percent remaining was calculated. Order by selecting Microsomal Stability in Prometheus, checking boxes for desired species.
(§2) Available species: human, mouse (CD-1), and rat (Sprague-Dawley). Compound requirements: 5 μL of a 10 mM DMSO solution. Incubation time: 60 minutes at 37° C. Test Concentration: 1 μM.
(§3) Microsomes with NADPH without compound-matrix interference. Microsomes plus compound without NADPH-non-enzymatic instability.

[2] = Plasma protein binding (RED), mouse; format: in vitro ADME, mouse (CD-1); conditions: CD-1, 5 hours at 37° C., read-out: Plasma Protein Binding (Mouse, % bound) (converted)
Plasma stability, human = format: in vitro ADME
Method: (§4) Stability of compound in plasma was tested in duplicate by incubating compound at 5 μM for 5 hours at 37° C. Compound level at 5 hours was compared to level at 0 hours, and percent remaining was calculated. Binding to plasma proteins was tested in duplicate by incubating compound in plasma at 5 μM for 5 hours at 37° C. in the Rapid Equilibrium Dialysis (RED) Device. Compound level in plasma compartment was compared to compound level in buffer compartment to calculate percent bound. Order by selecting Plasma Stability and Plasma Protein Binding in Prometheus, checking boxes for desired species.
(§5) Available species: human, mouse (CD-1), and rat (Sprague-Dawley). Compound requirements: 15 μL of a 10 mM DMSO solution. Incubation time: 5 hours at 37° C. Test Concentration: 5 μM.

Plasma stability, mouse = format: in vitro ADME, mouse (CD-1)
Method: as §4, §5

[3] = Liver microsomal stability, human; format: in vitro ADME
Method: as §1, §2, §3

physchem = conditions: 23 °C, aqueous buffer, thermodynamic from solid
Method: (§6) Solubility of compound was tested in triplicate by diluting a 10 mM DMSO solution with PBS. Maximum concentration of compound in solution was 100 μM.
(§7) Solubility of compound was tested in triplicate by drying down a 10 mM DMSO solution and then attempting to reconstitute in 100% PBS. Maximum concentration of compound in solution was 500 μM.
(§8) Compound requirements (1% DMSO in PBS): 30 μL of a 10 mM DMSO solution. Compound requirements (PBS-only): 60 μL of a 10 mM DMSO solution. Equilibration time: 18 hours at room temperature.

[4] = Plasma protein binding (RED), human; format: in vitro ADME; conditions: 5 hours at 37° C., read-out: Plasma Protein Binding (Human, % bound) (converted)
Method: as §4, §5

[5] = system: SMA patient-derived fibroblast cells; conditions: Western blot; cited from earlier work
[6] = system: Δ7 SMA KO mouse model of SMA; conditions: transgenic Δ7 SMA KO mouse model; cited from earlier work
[7] = system: oxidative stress-induced neurodegeneration; conditions: cited from earlier work
Solubility in PBS = conditions: 23 °C, aqueous buffer, thermodynamic from solid
Method: as §6, §7, §8

GSK3β = GSK3β (Homo sapiens (Human), UniProt P49841); assay: GSK3 beta biochemical assay (TR-FRET); conditions: GSK3β TR-FRET BIOCHEMICAL (TR-FRET) GMean IC50, 2 μM ATP (Km), 100 min at room temperature
GSK3β, sequence (P49841 whole entry): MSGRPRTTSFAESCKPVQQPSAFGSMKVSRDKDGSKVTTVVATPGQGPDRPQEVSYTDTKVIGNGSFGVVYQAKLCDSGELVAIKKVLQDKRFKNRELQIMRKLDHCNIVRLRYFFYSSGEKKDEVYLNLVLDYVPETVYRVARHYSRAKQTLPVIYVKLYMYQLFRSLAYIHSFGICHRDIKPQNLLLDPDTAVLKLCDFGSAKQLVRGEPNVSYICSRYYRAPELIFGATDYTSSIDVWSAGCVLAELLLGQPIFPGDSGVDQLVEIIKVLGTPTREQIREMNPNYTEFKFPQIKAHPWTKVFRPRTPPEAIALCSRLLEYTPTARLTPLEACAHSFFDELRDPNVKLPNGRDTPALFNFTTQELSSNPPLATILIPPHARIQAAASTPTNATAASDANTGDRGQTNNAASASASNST
Method: (§9) 1 nM enzyme, 200 nM biotinylated peptide
(§10) 4 μM ATP (GSK3 alpha) or 2 μM ATP (GSK3 beta)
(§11) The reaction volume is 10 μL, and the final percent DMSO is 1%. The total volume of DMSO is therefore 100 nL. It is critical that the percentage of DMSO be controlled and consistent across the plate. […] The High control is with all assay components but no inhibitor, the low control is with all assay components but no enzyme.
(§12) Make 2× detection reagents in Invitrogen TR-FRET detection buffer for final 20 nM Strepavidin-d2, 1 nM Tb^2+-pSer641 antibody (using 20 μl as final volume). 2× detection=40 nM Strepavidin-d2, 2 nM Tb^2+-pSer641 antibody.
(§13) XLFit is used for results which are archived into a database. The data is normalized as a percentage of uninhibited control minus max inhibited controls.

MDR1 = assay: Additional MDCK permeability (MDR1-MDCK) assay (Example 6); format: in vitro ADME; conditions: dog
Source text: The MDR1/MDCK assay is run at Absorption Systems. This assay is used to determine the blood-brain barrier (BBB) penetration potential of a test compound using MDR1-MDCK cell monolayers.
Assay System • Confluent monolayers of MDR1-MDCK cells, 7 to 11 days old. Assay Conditions • Receiver well with 1% BSA in modified Hanks buffer (HBSSg) • Apical and basolateral side at pH 7.4 • Dose two monolayers in each direction (N=2) • Dose apical side for (A to B) assessment • Dose basolateral side for (B to A) assessment • Sample both apical and basolateral sides at 120 minutes • Determine the concentrations of test compound using a generic LC-MS/MS method with a minimum 4 point calibration curve. Assay QC • The quality of the cell monolayer batch is verified using control compounds before monolayers are released for use • The quality of each monolayer used in the assay is verified by a TEER measurement and by calculating the Papp for a control compound.

GSK3α = GSK3α (Homo sapiens (Human), UniProt P49840); assay: GSK3 alpha biochemical assay (TR-FRET); conditions: GSK3α TR-FRET BIOCHEMICAL (TR-FRET) GMean IC50, 4 μM ATP (Km), 100 min at room temperature
GSK3α, sequence (P49840 whole entry): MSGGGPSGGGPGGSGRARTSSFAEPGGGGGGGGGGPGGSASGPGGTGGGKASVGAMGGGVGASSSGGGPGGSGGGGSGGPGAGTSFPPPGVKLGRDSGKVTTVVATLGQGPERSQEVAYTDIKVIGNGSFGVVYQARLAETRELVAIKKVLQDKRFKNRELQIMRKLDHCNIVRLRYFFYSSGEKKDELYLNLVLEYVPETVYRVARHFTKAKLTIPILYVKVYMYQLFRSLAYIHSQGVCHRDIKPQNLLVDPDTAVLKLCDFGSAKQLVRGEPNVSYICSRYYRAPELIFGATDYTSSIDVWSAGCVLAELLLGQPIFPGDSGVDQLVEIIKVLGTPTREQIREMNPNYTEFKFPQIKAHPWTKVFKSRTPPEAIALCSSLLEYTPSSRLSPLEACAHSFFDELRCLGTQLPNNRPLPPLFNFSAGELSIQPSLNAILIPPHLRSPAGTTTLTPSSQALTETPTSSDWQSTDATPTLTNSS
Method: as §9, §10, §11, §12, §13

GSK3 = conditions: cited from earlier work
[8] = mouse plasma, 5 μM, 5 hours at 37° C.
[9] = human plasma, 5 μM, 5 hours at 37° C.

Row | Compound | fraction unbound at 5 h, 5 μM [2] | fraction unbound at 5 h, 5 μM [4] | Mouse Liver Microsomal Stability, % remaining ([1]; 1 μM, 60 minutes at 37° C.) [%] | Plasma Stability (Mouse, % remaining) (Plasma stability, mouse; [8]) [%] | Human Liver Microsomal Stability, % remaining ([3]; 1 μM, 60 minutes at 37° C.) [%] | solubility thermodynamic at 18 h (Solubility in PBS) [µM] | Plasma Stability (Human, % remaining) (Plasma stability, human; [9]) [%] | also measured
1 | Cc1c[nH]c(-c2cnc(NCCNc3ccc(C#N)cn3)nc2-c2ccc(Cl)cc2Cl)n1 [drawing 180] | 0.043 | 0.039 | – | – | – | – | – | Mouse Liver Microsomal Stability, % remaining [1]: 4.0%; Plasma Stability (Human, % remaining) (Plasma stability, human): 100%; Plasma Stability (Mouse, % remaining) (Plasma stability, mouse): 97.0%; Human Liver Microsomal Stability, % remaining [3]: 3.0%; solubility thermodynamic at 18 h (physchem): 116 µM (≈ 54 µg/mL)
2 | CC[C@@]1(c2ccccc2)C2=C(CC(C)(C)CC2=O)Nc2n[nH]cc21 [drawing 179] | 0.212 | – | 93 | 95.3 | 95 | – | – | solubility thermodynamic at 18 h (physchem): 480 µM (≈ 154 µg/mL)
3 | Cn1cc(C2=C(c3coc4ccccc34)C(=O)NC2=O)c2cc(Br)ccc21 [BIP-135] | – | – | – | – | – | – | – | SMN protein level [5]: elevate the SMN protein level; median survival of the mice [6]: prolong the median survival of the mice; neuroprotection [7]: neuroprotective
4 | CC1(C)CC(=O)C2=C(C1)Nc1ncsc1[C@]2(C)c1ccccc1 [drawing 172] | 0.004 | 0.005 | 0.7 | 100 | 17.7 | 34 (≈ 11 µg/mL) | 100 | –
5 | CCC1(c2ccccc2)C2=C(CC(C)(C)CC2=O)Nc2ncsc21 (single isomer, unassigned) [Compound 1-E2, 9-Ethyl-6,6-dimethyl-9-phenyl-5,6,7,9-tetrahydrothiazolo[4,5-b]quinolin-8(4H)-one] | – | – | – | – | – | – | – | IC50 (GSK3β): 0.19 µM; Papp A→B at 120 min, 5 μM (MDR1): 7.67 ×10⁻⁶ cm/s; Papp B→A at 120 min, 5 μM (MDR1): 24.4 ×10⁻⁶ cm/s; efflux ratio at 120 min, 5 μM (MDR1; read-out: MDCK PERMEABILITY (MDR1-MDCK) Mean P. Ratio(B-A/A-B)): 3.2; IC50 (GSK3α): 0.037 µM
6 | CC[C@@]1(c2cccc(OC)c2)C2=C(CC(C)(C)CC2=O)Nc2ncsc21 | 0.077 | 0.025 | 10.8 | 97.0 | 1.6 | 153 (≈ 56.4 µg/mL) | 98.3 | –
7 | [Li+] [Li^+, Lithium] | – | – | – | – | – | – | – | IC50 (GSK3): 2000 µM
8 | CC[C@@]1(c2ccccc2)C2=C(CC(C)(C)CC2=O)Nc2ncsc21 [drawing 173] | 0.074 | 0.049 | 5.6 | 100 | 6.6 | 17 (≈ 5.75 µg/mL) | 100 | –
